Measured values published in US20140135357A1, “DOSE REGIME FOR CAMPTOTHECIN DERIVATIVES” (Taiwan Liposome Company, Ltd., priority 2012, published 2014).
Where two headings read alike, the source gives them in different places.

Legend:
clinical = conditions: human, in vivo
[1] = human, in vivo; for time at which peak plasma concentrations (Cmax) were achieved / time of rapid rise of the metabolites in the serum after starting the infusion: iv
topoisomerase I = molecular target: T1, topoisomerase I (Homo sapiens, UniProt P11387); assay: Topoisomerase I inhibition; format: biochemical
T1 sequence (P11387 1-765): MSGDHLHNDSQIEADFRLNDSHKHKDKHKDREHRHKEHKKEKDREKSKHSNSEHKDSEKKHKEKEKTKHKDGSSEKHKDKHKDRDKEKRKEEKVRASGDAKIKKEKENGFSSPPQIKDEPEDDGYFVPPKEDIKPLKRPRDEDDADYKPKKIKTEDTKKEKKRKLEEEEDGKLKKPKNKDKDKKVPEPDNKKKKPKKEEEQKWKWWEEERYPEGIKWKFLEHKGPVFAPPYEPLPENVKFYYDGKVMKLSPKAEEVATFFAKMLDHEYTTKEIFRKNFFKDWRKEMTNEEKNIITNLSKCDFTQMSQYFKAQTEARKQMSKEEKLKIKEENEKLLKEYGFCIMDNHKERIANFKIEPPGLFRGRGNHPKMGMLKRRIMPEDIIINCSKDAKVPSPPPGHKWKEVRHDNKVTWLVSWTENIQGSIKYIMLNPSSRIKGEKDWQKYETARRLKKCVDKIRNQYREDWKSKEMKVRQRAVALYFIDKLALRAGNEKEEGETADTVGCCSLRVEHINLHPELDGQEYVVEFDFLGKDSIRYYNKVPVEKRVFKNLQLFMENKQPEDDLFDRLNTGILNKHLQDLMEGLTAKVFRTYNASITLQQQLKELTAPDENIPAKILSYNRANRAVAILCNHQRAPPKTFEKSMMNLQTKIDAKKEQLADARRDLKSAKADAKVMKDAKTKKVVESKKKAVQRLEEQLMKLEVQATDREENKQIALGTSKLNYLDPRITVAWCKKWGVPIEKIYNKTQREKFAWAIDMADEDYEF

Compound `CC[C@@]1(O)C(=O)OCc2c1cc1n(c2=O)Cc2cc3c(CN(C)C)c(O)ccc3nc2-1` [Topotecan, reference compound] has an AUC0-t (clinical; 1.3 mg/m2, AUC0-t) of 5.32 ng·h/mL, a Cmax (clinical; 1.3 mg/m2, Cmax) of 1.06 ng/mL and a Tmax (clinical; 1.3 mg/m2, Tmax) of 0.906 h. The half-life (clinical; 1.3 mg/m2, t1/2) was 4.32 h, the AUC0-t (clinical; 1.5 mg/m2, AUC0-t) was 6.01 ng·h/mL and the Cmax (clinical; 1.5 mg/m2, Cmax) was 1.52 ng/mL. The Tmax (clinical; 1.5 mg/m2, Tmax) was 0.628 h, the half-life (clinical; 1.5 mg/m2, t1/2) was 4.76 h and the AUC0-t (clinical; 3 mg/m2, AUC0-t) was 11.7 ng·h/mL. It also gave a Cmax (clinical; 3 mg/m2, Cmax) of 2.1 ng/mL, a half-life (clinical; 3 mg/m2, t1/2) of 7.03 h and an AUC0-t (clinical; 6 mg/m2, AUC0-t) of 21.5 ng·h/mL. For the same compound, the Cmax (clinical; 6 mg/m2, Cmax) was 4.83 ng/mL, the Tmax (clinical; 6 mg/m2, Tmax) was 0.989 h and the half-life (clinical; 6 mg/m2, t1/2) was 6.87 h. The AUC0-t (clinical; 9 mg/m2, AUC0-t) was 27.6 ng·h/mL, the Cmax (clinical; 9 mg/m2, Cmax) was 6.38 ng/mL and the Tmax (clinical; 9 mg/m2, Tmax) was 1.15 h. The half-life (clinical; 9 mg/m2, t1/2) was 7.7 h, the AUC0-t (clinical; 13.5 mg/m2) was 37.6 ng·h/mL and the Cmax (clinical; 13.5 mg/m2) was 8.71 ng/mL. It also gave a half-life (clinical; 13.5 mg/m2) of 6.29 h, a half-life (clinical; 20 mg/m2) of 4.65 h and an AUC0-t (clinical; 20 mg/m2, AUC0-t) of 47.3 ng·h/mL. The Cmax (clinical; 20 mg/m2, Cmax) was 11.3 ng/mL, the Tmax (clinical; 20 mg/m2, Tmax) was 0.483 h and the half-life (clinical; 20 mg/m2, t1/2) was 5.07 h. For the same compound, the half-life (clinical; 30 mg/m2) was 4.63 h, the AUC0-t (clinical; 30 mg/m2, AUC0-t) was 97 ng·h/mL and the Tmax (clinical; 30 mg/m2, Tmax) was 1.54 h. For the same compound, the half-life (clinical; 30 mg/m2, t1/2) was 4.06 h, the AUC0-t (clinical; 35 mg/m2, AUC0-t) was 176 ng·h/mL and the Cmax (clinical; 35 mg/m2, Cmax) was 51.3 ng/mL. It also gave a Tmax (clinical; 35 mg/m2, Tmax) of 1 h, a half-life (clinical; 35 mg/m2, t1/2) of 7.66 h and a Tmax (clinical; 40 mg/m2, Tmax) of 0.85 h. It also gave a half-life (clinical; 40 mg/m2, t1/2) of 5.84 h, a half-life (clinical; 50 mg/m2) of 5.51 h and an AUC0-t (clinical; 50 mg/m2, AUC0-t) of 208 ng·h/mL. It also gave a Cmax (clinical; 50 mg/m2, Cmax) of 37.5 ng/mL, a Tmax (clinical; 50 mg/m2, Tmax) of 0.903 h and a half-life (clinical; 50 mg/m2, t1/2) of 7.39 h. The AUC0-t (clinical; 60 mg/m2, AUC0-t) was 215 ng·h/mL, the Cmax (clinical; 60 mg/m2, Cmax) was 57.1 ng/mL and the Tmax (clinical; 60 mg/m2, Tmax) was 0.837 h. The half-life (clinical; 60 mg/m2, t1/2) was 5.18 h, the Tmax (clinical; 60 mg/m2, tmax) was 0.93 ± 0.82 h and the half-life (clinical; T1/2) was over 2.5 h. The “Dose-normalized AUClast” value [1] was 8.52 ± 3.09 nM*h/(mg/m^2), the “Dose-normalized Cmax” value [1] was 1.95 ± 1.04 nM/(mg/m^2) and the “difference between PK profiles on Day 1 and Day 8” value [1] was “no significant difference”. For the same compound, the “dose proportionality of exposure” value [1] was “roughly dose proportional”, the AUC0-t ([1]; 3 mg/m2) was 7.866 ng·h/mL and the AUC0-t ([1]; 6 mg/m2) was 21.656 ng·h/mL. For the same compound, the AUC0-t ([1]; 9 mg/m2) was 37.978 ng·h/mL, the AUC0-t ([1]; 20 mg/m2) was 44.026 ng·h/mL and the AUC0-t ([1]; 30 mg/m2) was 120.74 ng·h/mL. For the same compound, the AUC0-t ([1]; 35 mg/m2) was 190.91 ng·h/mL, the Cmax ([1]; 35 mg/m2) was 58.075 ng/mL and the Tmax ([1]; 35 mg/m2) was 0.604 (0.156) hr. The t1/2 ([1]; 35 mg/m2) was 6.177 (3.376) hr, the AUC0-t ([1]; 50 mg/m2) was 207.30 ng·h/mL and the AUC0-t ([1]; 60 mg/m2) was 207.43 ng·h/mL. For the same compound, the “time at which peak plasma concentrations (Cmax) were achieved” value [1] was “within one hour” and the “time of rapid rise of the metabolites in the serum after starting the infusion” value [1] was at most 15 min.

Work on `CC[C@@]1(OC(=O)[C@@H](C)O)C(=O)OCc2c1cc1n(c2=O)Cc2cc3c(CN(C)C)c(O)ccc3nc2-1` [TLC-U1, S,R-topotecan lactate] yielded an AUC0-t (clinical; 1.5 mg/m2, AUC0-t) of 13 ng·h/mL, a Cmax (clinical; 1.5 mg/m2, Cmax) of 11.2 ng/mL and a Tmax (clinical; 1.5 mg/m2, Tmax) of 0.628 h. The half-life (clinical; 1.5 mg/m2, t1/2) was 2.79 h, the AUC0-t (clinical; 3 mg/m2, AUC0-t) was 24.6 ng·h/mL and the Cmax (clinical; 3 mg/m2, Cmax) was 17.1 ng/mL. For the same compound, the Tmax (clinical; 3 mg/m2, Tmax) was 0.467 h, the half-life (clinical; 3 mg/m2, t1/2) was 2.65 h and the AUC0-t (clinical; 6 mg/m2, AUC0-t) was 44.3 ng·h/mL. For the same compound, the Cmax (clinical; 6 mg/m2, Cmax) was 28.5 ng/mL, the Tmax (clinical; 6 mg/m2, Tmax) was 0.467 h and the half-life (clinical; 6 mg/m2, t1/2) was 2.9 h. The AUC0-t (clinical; 9 mg/m2, AUC0-t) was 48.6 ng·h/mL, the Cmax (clinical; 9 mg/m2, Cmax) was 37.8 ng/mL and the Tmax (clinical; 9 mg/m2, Tmax) was 0.563 h. It also gave a half-life (clinical; 9 mg/m2, t1/2) of 3.68 h, an AUC0-t (clinical; 13.5 mg/m2) of 99.1 ng·h/mL and a Cmax (clinical; 13.5 mg/m2) of 56.3 ng/mL. For the same compound, the Tmax (clinical; 13.5 mg/m2) was 0.308 h, the half-life (clinical; 13.5 mg/m2) was 2.85 h and the AUC0-t (clinical; 20 mg/m2, AUC0-t) was 112 ng·h/mL. The Cmax (clinical; 20 mg/m2, Cmax) was 87.4 ng/mL, the Tmax (clinical; 20 mg/m2, Tmax) was 0.405 h and the half-life (clinical; 20 mg/m2, t1/2) was 2.95 h. For the same compound, the AUC0-t (clinical; 30 mg/m2, AUC0-t) was 163 ng·h/mL, the Cmax (clinical; 30 mg/m2, Cmax) was 105 ng/mL and the Tmax (clinical; 30 mg/m2, Tmax) was 0.454 h. The half-life (clinical; 30 mg/m2, t1/2) was 2.66 h, the AUC0-t (clinical; 35 mg/m2, AUC0-t) was 340 ng·h/mL and the Cmax (clinical; 35 mg/m2, Cmax) was 196 ng/mL. The Tmax (clinical; 35 mg/m2, Tmax) was 0.638 h, the half-life (clinical; 35 mg/m2, t1/2) was 5.33 h and the AUC0-t (clinical; 40 mg/m2, AUC0-t) was 283 ng·h/mL. It also gave a Tmax (clinical; 40 mg/m2, Tmax) of 0.392 h, a half-life (clinical; 40 mg/m2, t1/2) of 2.94 h and an AUC0-t (clinical; 50 mg/m2, AUC0-t) of 365 ng·h/mL. It also gave a Cmax (clinical; 50 mg/m2, Cmax) of 242 ng/mL, a Tmax (clinical; 50 mg/m2, Tmax) of 0.436 h and a half-life (clinical; 50 mg/m2, t1/2) of 2.9 h. The AUC0-t (clinical; 60 mg/m2, AUC0-t) was 421 ng·h/mL, the Cmax (clinical; 60 mg/m2, Cmax) was 347 ng/mL and the Tmax (clinical; 60 mg/m2, Tmax) was 0.357 h. The half-life (clinical; 60 mg/m2, t1/2) was 2.91 h, the Tmax (clinical; 60 mg/m2, tmax) was 0.45 ± 0.17 h and the half-life (clinical; T1/2) was over 2.5 h. The Tmax (clinical; Tmax) was under 1 h, the “Cmax and AUCo-t of TLC-U1 relative to TLC-U2” value [1] was 3-4 times and the “Cmax and AUCo-t of TLC-U1 relative to topotecan” value [1] was “approximately 2 times”. For the same compound, the “Dose-normalized AUClast” value [1] was 14.49 ± 4.46 nM*h/(mg/m^2), the “Dose-normalized Cmax” value [1] was 10.15 ± 3.87 nM/(mg/m^2) and the “difference between PK profiles on Day 1 and Day 8” value [1] was “no significant difference”. The “dose proportionality of exposure” value [1] was “roughly dose proportional”, the AUC0-t ([1]; 1.5 mg/m2) was 10.869 (1.365) hr · ng/mL and the Cmax ([1]; 1.5 mg/m2) was 6.897 (1.325) ng/mL. The Tmax ([1]; 1.5 mg/m2) was 0.483 (0.000) hr, the t1/2 ([1]; 1.5 mg/m2) was 2.687 (0.329) hr and the AUC0-t ([1]; 3 mg/m2) was 16.705 (4.893) hr · ng/mL. For the same compound, the AUC0-t ([1]; 6 mg/m2) was 46.533 (10.74) hr · ng/mL, the AUC0-t ([1]; 9 mg/m2) was 54.481 (10.70) hr · ng/mL and the AUC0-t ([1]; 20 mg/m2) was 101.46 (37.00) hr · ng/mL. The AUC0-t ([1]; 30 mg/m2) was 190.59 (33.45) hr · ng/mL, the AUC0-t ([1]; 35 mg/m2) was 406.54 (77.86) hr · ng/mL and the Cmax ([1]; 35 mg/m2) was 327.75 (216.8) ng/mL. For the same compound, the Tmax ([1]; 35 mg/m2) was 0.546 (0.087) hr, the t1/2 ([1]; 35 mg/m2) was 4.064 (1.658) hr and the AUC0-t ([1]; 40 mg/m2) was 285.94 (207.9) hr · ng/mL. The AUC0-t ([1]; 50 mg/m2) was 349.27 (131.8) hr · ng/mL, the AUC0-t ([1]; 60 mg/m2) was 417.98 (54.75) hr · ng/mL and the “time at which peak plasma concentrations (Cmax) were achieved” value [1] was “within one hour”. For the same compound, the “time of rapid rise of the metabolites in the serum after starting the infusion” value [1] was at most 15 min and the “topoisomerase I inhibition” value (topoisomerase I) was “weak topoisomerase I Inhibitors”.
